Laboratory results taken from US11667675B2, “MASP inhibitory compounds and uses thereof” (Bayer Aktiengesellschaft, priority 2019, dated 2023).
Counter-ions that a name gives are not always drawn. Bridge positions count the residues as written; N and C are the ends. Square brackets hold non-standard residues; d marks the D form. Peptide text beside a SMILES is read from it. PEG9 = NCCOCCOCCOCCOCCOCCOCCOCCOCCOCCC(=O)O; tBuAla = CC(C)(C)C[C@H](N)C(=O)O; Pen = CC(C)(S)[C@H](N)C(=O)O; NMeC = CN[C@@H](CS)C(=O)O; Sar = CNCC(=O)O

Experiments:
[1] = target: T1, human MASP1 (Homo sapiens, UniProt P48740); assay: Biochemical human MASP1 assay (FRET substrate); conditions: average IC50
T1 construct: Ig-kappa secretion signal (N, cleaved yes); made in house; host or cells: HEK293 (ATCC No. CRL-1573)
T1 sequence (P48740 297-448): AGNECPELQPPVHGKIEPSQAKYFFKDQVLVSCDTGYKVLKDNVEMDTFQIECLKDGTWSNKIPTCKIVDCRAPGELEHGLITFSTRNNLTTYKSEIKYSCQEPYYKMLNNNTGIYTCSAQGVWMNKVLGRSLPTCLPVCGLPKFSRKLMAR
T1 sequence (P48740 449-699): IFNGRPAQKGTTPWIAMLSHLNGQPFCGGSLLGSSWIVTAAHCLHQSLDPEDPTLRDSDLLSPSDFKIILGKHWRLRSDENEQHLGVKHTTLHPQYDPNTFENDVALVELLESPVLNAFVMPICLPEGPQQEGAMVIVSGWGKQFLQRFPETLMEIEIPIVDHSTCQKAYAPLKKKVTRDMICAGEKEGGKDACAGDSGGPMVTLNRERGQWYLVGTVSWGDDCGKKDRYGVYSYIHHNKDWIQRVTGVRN
Source text: (§1) 2.1 Recombinant Expression and Protein Production of Recombinant Human MASP1 and MASP2 Active Proteases.
(§2) The MASP1 or MASP2 expression vectors were transfected into the HEK293 (ATCC No. CRL-1573) cell line using Lipofectamine LTX® Reagent (Thermo-Fischer), as described by the manufacturer. […] The MASP1 and MASP2 proteins were purified from the conditioned media by affinity chromatography on Ni-NTA Superflow resin (Qiagen) as described by the manufacturer.
2.2 Biochemical Human MASP1 Assay
(§3) Recombinant human MASP1 enzyme produced in the HEK 293 cells was diluted in the reaction buffer (50 mM HEPES pH 8,0; 100 mM NaCl; 0.01% CHAPS; 0.5 mM Gluthathione) to the concentration of 20 nM and 25 μl was transferred into each single well of 384-well white microtiter plate (Greiner Bio One 781075). 1 μl of the inhibitor compound solution (dissolved in DMSO, at the corresponding concentration) or pure DMSO as a control was added to the same wells. […] The microtiter plate was incubated for 60-120 min at the temperature of 32 C. The increase of fluorescence intensity was measured in appropriate fluorescence plate reader (e.g. TECAN Ultra) using excitation wavelength of 320 nm and emission wavelength of 420 nm. IC50 values were calculated from percentage of inhibition of human MASP1 activity as a function of test compound concentration.

[2] = tested on: Human C3-[…]; assay: C3 deposition assay, human serum on mannan-coated plates; format: biochemical; conditions: average IC50, read-out: Human C3-DEPOSITION SERUM IC50
Description: (§4) 3. C3 Deposition Assay (Human, Rat, Mouse, Dog, Mini-Pig)
(§5) The C3 deposition assay was conducted essentially as described (reference). Multi well plates (Greiner-Nunc 384 Maxi Sorp #464718) were coated over night with Mannan from Saccharomyces cerevisiae (Sigma M7504, 10 μg/mL in 0.05 M carbonate-bicarbonate buffer, pH 9.6) at 4° C. Wells were washed three times with TBS and subsequently incubated for 2 hours with 50 μL of 1% bovine serum albumin (BSA) in Tris-buffered saline (TBS) at 37° C. in order to block non-specific binding. After this step and each of the following incubation steps wells were washed three times with C3 wash buffer (TBS; 0.05% Tween 20; 5 mM CaCl2). […] When appropriately developed the color reaction was stopped by addition of 25 μL of stop solution (Sigma S5814) and quantified on a photometer by measuring absorption at a wavelength of 450 nm. Antibodies were diluted in C3 wash buffer supplemented with 0.5% BSA.

[3] = target: T2, rat MASP1 (Rattus norvegicus, UniProt Q8CHN8); assay: Biochemical rat MASP1 assay (FRET substrate); conditions: average IC50; recombinant rat MASP1, FRET substrate
T2 construct: Ig-kappa secretion signal (N, cleaved yes); made in house; host or cells: HEK293 (ATCC No. CRL-1573)
T2 sequence (Q8CHN8 302-453 limits assumed): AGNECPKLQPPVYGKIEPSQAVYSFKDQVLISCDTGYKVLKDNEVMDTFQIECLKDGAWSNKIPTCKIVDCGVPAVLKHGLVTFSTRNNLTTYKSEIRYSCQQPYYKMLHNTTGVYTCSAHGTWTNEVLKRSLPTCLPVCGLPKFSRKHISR
T2 sequence (Q8CHN8 454-704 limits assumed): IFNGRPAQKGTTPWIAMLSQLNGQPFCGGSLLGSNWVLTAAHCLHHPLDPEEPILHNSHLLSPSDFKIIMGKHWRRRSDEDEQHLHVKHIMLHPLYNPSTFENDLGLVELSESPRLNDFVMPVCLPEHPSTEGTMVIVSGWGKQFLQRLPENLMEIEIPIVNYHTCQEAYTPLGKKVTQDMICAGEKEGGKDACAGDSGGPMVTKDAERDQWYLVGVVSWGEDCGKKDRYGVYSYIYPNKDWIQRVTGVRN
Source text: (§6) 4. Biochemical Rat MASP-1 and MASP-2 Assay
(§7) 4.1 Recombinant Expression and Protein Production of Recombinant Human and Rat MASP1 and MASP2 Active Proteases.
A truncated cDNA sequence of rat MASP1 encoding the fragment corresponding to the amino acids 302-704 with an C-terminal His Tag and N-terminal Ig-kappa secretion signal (SEQ ID No: 4) was subcloned into the mammalian expression vector pcDNA3.1 (Invitrogen).
(§8) The MASP1 or MASP2 expression vectors were transfected into the HEK293 (ATCC No. CRL-1573) cell line using Lipofectamine LTX® Reagent (Thermo-Fischer), as described by the manufacturer. The mature form of the recombinant rat MASP1 and MASP2 proteases were secreted into the culture medium. The MASP1 and MASP2 proteins were purified from the conditioned media by affinity chromatography on Ni-NTA Superflow resin (Qiagen) as described by the manufacturer.
4.2 Biochemical Rat MASP1 Assay.
Recombinant rat MASP1 enzyme produced in the HEK 293 cells was diluted in the reaction buffer (50 mM HEPES pH 8,0; 100 mM NaCl; 0.01% CHAPS; 0.5 mM Gluthathione) to the concentration of 4 nM and 25 μl was transferred into each single well of 384-well white microtiter plate (Greiner Bio One 781075). 1 μl of the inhibitor compound solution (dissolved in DMSO, at the corresponding concentration) or pure DMSO as a control was added to the same wells. The enzymatic reaction was initiated by addition of 25 μl of 40 μM solution of the FRET substrate Dabcyl-[…]-Glu(Edans)-NH2 (SEQ ID NO: 8); (Dabcyl—4-((4-(dimethylamino)phenyl)azo)benzoic acid; Edans—5-[(2-Aminoethyl) amino]naphthalene-1-sulfonyl; custom synthesis by Jerini Peptide Technologies, Berlin) in the reaction buffer. The microtiter plate was incubated for 60-120 min at the temperature of 32 C. The increase of fluorescence intensity was measured in appropriate fluorescence plate reader (e.g. TECAN Ultra) using excitation wavelength of 340 nm and emission wavelength of 490 nm. IC50 values were calculated from percentage of inhibition of rat […] activity as a function of test compound concentration.

[4] = target: T3, rat MASP2 (Rattus norvegicus, UniProt Q9JJS8); assay: Biochemical rat MASP2 assay (FRET substrate); conditions: average IC50; recombinant rat MASP2, FRET substrate
T3 construct: Ig-kappa secretion signal (N, cleaved yes); made in house; host or cells: HEK293 (ATCC No. CRL-1573)
T3 sequence (Q9JJS8 296-443): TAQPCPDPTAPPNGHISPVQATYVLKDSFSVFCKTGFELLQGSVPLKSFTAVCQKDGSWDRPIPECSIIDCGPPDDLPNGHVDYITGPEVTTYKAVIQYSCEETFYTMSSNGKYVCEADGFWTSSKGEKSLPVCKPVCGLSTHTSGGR
T3 sequence (Q9JJS8 444-685): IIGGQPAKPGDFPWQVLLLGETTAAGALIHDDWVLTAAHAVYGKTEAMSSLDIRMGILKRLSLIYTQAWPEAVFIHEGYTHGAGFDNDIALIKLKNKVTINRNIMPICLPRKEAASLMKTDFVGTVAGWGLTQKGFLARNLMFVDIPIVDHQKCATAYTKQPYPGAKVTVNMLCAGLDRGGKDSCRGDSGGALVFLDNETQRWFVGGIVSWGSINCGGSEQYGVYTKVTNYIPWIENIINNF
Source text: as §6, §7, §8
4.3 Biochemical Rat MASP2 Assay.
Recombinant rat MASP2 enzyme produced in the HEK 293 cells was diluted in the reaction buffer (50 mM HEPES pH 8,0; 100 mM NaCl; 0.01% CHAPS; 0.5 mM Gluthathione) to the concentration of 20 nM and 25 μl was transferred into each single well of 384-well white microtiter plate (Greiner Bio One 781075). 1 μl of the inhibitor compound solution (dissolved in DMSO, at the corresponding concentration) or pure DMSO as a control was added to the same wells. The enzymatic reaction was initiated by addition of 25 μl of 30 μM solution of the FRET substrate Abz-IEGRTSED-(Lys)Dnp-NH2 (SEQ ID NO: 9); (ABZ—2-aminobenzoyl; DNP_2,4-dinitrophenyl; custom synthesis by Jerini Peptide Technologies, Berlin) in the reaction buffer. The microtiter plate was incubated for 60-120 min at the temperature of 32 C. The increase of fluorescence intensity was measured in appropriate fluorescence plate reader (e.g. TECAN Ultra) using excitation wavelength of 320 nm and emission wavelength of 420 nm. IC50 values were calculated from percentage of inhibition of rat […] activity as a function of test compound concentration.

[5] = tested on: rat C3-[…]; assay: C3 deposition assay, rat serum on mannan-coated plates; format: biochemical; conditions: average IC50
Description: as §4, §5

[6] = target: T4, human MASP2 (Homo sapiens, UniProt O00187); assay: Biochemical human MASP2 assay (FRET substrate); conditions: average IC50
T4 construct: Ig-kappa secretion signal (N, cleaved yes); made in house; host or cells: HEK293 (ATCC No. CRL-1573)
T4 sequence (O00187 297-444): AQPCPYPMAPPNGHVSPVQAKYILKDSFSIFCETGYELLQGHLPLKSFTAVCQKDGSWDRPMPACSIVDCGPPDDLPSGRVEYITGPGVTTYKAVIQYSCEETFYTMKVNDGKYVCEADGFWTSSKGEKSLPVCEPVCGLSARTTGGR
T4 sequence (O00187 445-686): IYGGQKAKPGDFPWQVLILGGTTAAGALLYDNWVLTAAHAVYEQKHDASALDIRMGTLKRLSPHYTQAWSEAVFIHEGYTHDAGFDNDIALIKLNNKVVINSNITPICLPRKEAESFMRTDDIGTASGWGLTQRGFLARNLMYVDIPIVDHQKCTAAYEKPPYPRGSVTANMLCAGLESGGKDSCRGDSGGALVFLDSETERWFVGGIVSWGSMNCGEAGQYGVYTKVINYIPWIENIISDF
Source text: as §1, §2
2.3 Biochemical Human MASP2 Assay
as §3, with “MASP2” for “MASP1”, “340” for “320”, “490” for “420”

Molecule: CCC(C)[C@H](NC(=O)[C@H]1NC(=O)[C@H]([C@@H](C)CC)NC(=O)[C@@H]2C[C@@H]3CCCC[C@@H]3N2C(=O)[C@@H]2CCCN2C(=O)[C@H](CC(C)C)NC(=O)[C@H](CO)NC(=O)[C@H](CCCNC(=N)N)NC(=O)[C@H](CO)NC(=O)[C@@H](NC(=O)[C@@H](NC(=O)[C@H](C)NC)[C@@H](C)CC)CSSC1(C)C)C(=O)N1CCC[C@H]1C(=O)N[C@@H](CC(=O)NCc1ccccc1)C(N)=O (stereo in doubt) [Example 462]
- IC50 [1]: 12 nM
- IC50 [2]: 61 nM
- IC50 [3]: 160 nM
- IC50 [4]: 150 nM

Molecule: CC[C@H](C)[C@H](NC(=O)[C@H](C)N)C(=O)N[C@H]1CSSC(C)(C)[C@@H](C(=O)N[C@H](C(=O)N2CCC[C@H]2C(=O)N[C@@H](CC(=O)O)C(=O)O)[C@@H](C)CC)NC(=O)[C@H]([C@@H](C)CC)NC(=O)[C@@H]2C[C@@H]3CCCC[C@@H]3N2C(=O)[C@@H]2CCCN2C(=O)[C@H](CC(C)C)NC(=O)[C@H](CO)NC(=O)[C@H](CCCNC(=N)N)NC(=O)[C@H](CO)NC1=O [Example 29, AIC+SRSLP-(Oic)-I-(Pen)+IPD-OH (HCl Salt)]
- IC50 [1]: 2.45 nM
- IC50 [2]: 6.99 nM
- IC50 [3]: 10.5 nM
- IC50 [4]: 17.4 nM
- IC50 [5]: 196 nM

Molecule: CC[C@H](C)[C@H](NC(=O)CNC)C(=O)N[C@H]1CSSC(C)(C)[C@@H](C(=O)N[C@H](C(=O)N2CCC[C@H]2C(=O)NCCOCCOCCOCCOCCOCCOCCOCCOCCOCCC(N)=O)[C@@H](C)CC)NC(=O)[C@H]([C@@H](C)CC)NC(=O)[C@@H]2CCCN2C(=O)[C@@H]2CCCN2C(=O)[C@H](CC(C)(C)C)NC(=O)[C@H](CO)NC(=O)[C@H](CCCNC(=N)N)NC(=O)[C@H](CO)NC1=O [Example 44, ((N-Me)G)-IC+SRS-((tBu)A)-PPI-(Pen)+IP-(PEG9(31 Atoms))-NH2] (H-[Sar]ICSRS[tBuAla]PPI[Pen]IP[PEG9]-NH2; disulfide 3-11)
- IC50 [6]: 73 nM
- IC50 [2]: 68.5 nM
- IC50 [3]: 87 nM
- IC50 [4]: 35 nM

Molecule: CC[C@H](C)[C@H](NC(=O)[C@H](C)N)C(=O)N[C@H]1CSSC[C@@H](C(=O)N[C@H](C(=O)N2CCC[C@H]2C(=O)N[C@@H](CC(=O)O)C(N)=O)[C@@H](C)CC)N(C)C(=O)[C@H]([C@@H](C)CC)NC(=O)[C@@H]2CCCN2C(=O)[C@@H]2CCCN2C(=O)[C@H](CC(C)(C)C)NC(=O)[C@H](CO)NC(=O)[C@H](CCCNC(=N)N)NC(=O)[C@H](CO)NC1=O [Example 48, AIC+SRS-((tBu)A)-PPI-((N-Me)C)+IPD-NH2] (H-AICSRS[tBuAla]PPI[NMeC]IPD-NH2; disulfide 3-11)
- IC50 [1]: 1.95 nM
- IC50 [6]: 225 nM
- IC50 [2]: 102 nM
- IC50 [3]: 51.5 nM

Molecule: CC[C@H](C)[C@H](NC(=O)[C@H](C)N)C(=O)N[C@H]1CSSC(C)(C)[C@@H](C(=O)N[C@H](C(=O)N2CCC[C@H]2C(=O)N[C@@H](CC(=O)O)C(N)=O)[C@@H](C)CC)NC(=O)[C@H]([C@@H](C)CC)NC(=O)[C@@H]2C[C@@H]3CCCC[C@@H]3N2C(=O)[C@@H]2CCCN2C(=O)[C@H](CC(C)C)NC(=O)[C@H](CO)NC(=O)[C@H](CCCNC(=N)N)NC(=O)[C@H](CO)NC1=O [Example 75, AIC+SRSLP-(Oic)-I-(Pen)+IPD-NH2]
- IC50 [1]: 2.23 nM
- IC50 [2]: 32 nM
- IC50 [3]: 35 nM
- IC50 [4]: 34.9 nM
- IC50 [5]: 183 nM

Molecule: AIC+SRSLP-(Oic)-I-(Pen)+IPD-NH2 [Example 27]
- IC50 [2]: 8.5 nM
- IC50 [5]: 146 nM

Molecule: AIC+SRSLP-(Oic)-I-(Pen)+IPD-OH [Example 5]
- IC50 [2]: 10.3 nM
- IC50 [5]: 214 nM
